Counter-ions that a name gives are not always drawn. Like-named read-outs stand apart in the source and are kept apart here.

The results in this text go back to patent US7091357B2, “Chain-modified pyridino-N substituted nicotine compounds for use in the treatment of CNS pathologies” (University of Kentucky Research Foundation, priority 2001, dated 2006).

The target of assay [1] is T1, α7 neuronal nicotinic acetylcholine receptor subtype (Rattus norvegicus, UniProt Q05941).
T1 construct: from tissue; host or cells: rat brain membranes (without cortex, striatum and cerebellum)
The experiment in a line: [3H]-MLA binding assay, rat brain membranes. The following applies: read-out: Ki, displacement of [3H]-MLA binding. On the technique in general: Displacement assays read how much labelled ligand stays bound in the presence of the test substance.
Experimental: Rat brain tissue (without cortex, striatum and cerebellum) was homogenized with a Tekmar Polytron (setting 40) in 20 volumes of ice-cold hypotonic buffer (2 mM HEPES, 14.4 mM NaCl, 0.15 mM KCl, 0.2 mM CaCl2 and 0.1 mM MgSO4, pH=7.5). The homogenate was incubated at 37° C. for 10 minutes and centrifuged at 25,000×g for 15 minutes at 40° C. The pellet was washed 3 times more by resuspension in the 20 volumes of the same buffer and centrifugation at the above parameters. The final pellet was stored at −20° C. under 4.6 ml of the incubation buffer and was suspended just before the incubation with radioligand.
The binding of [^3H]methyllycaconitine ([^3H]MLA), a probe for the α7 neuronal nicotinic acetylcholine receptor subtype, was determined using a modification of the method of Davies et al., “Characterisation of the binding of [^3H]methyllycaconitine: a new radioligand for labelling α7-type neuronal nicotinic acetylcholine receptors”, Neuropharmacology, 38, 679–690 (1999). [^3H]-MLA (25.4 Ci/mmol) was purchased from Tocris Cookson Ltd., Bristol, U.K. Binding was performed in duplicate, in a final volume of 250 μL of the incubation medium, containing 20 mM HEPES, 144 mM NaCl, 1.5 mM KCl, 2 mM CaCl2, 1 mM MgSO4 and 0.05% BSA, pH=7.5. Reaction was initiated by the addition of 100 μl of membrane suspension to the samples containing a desired concentration of test compounds and 2.5 nM [^3H]-MLA (final concentration) and incubated for 2 hours at room temperature. Total binding was measured in the absence of unlabelled ligand, and nonspecific binding was determined in the presence of 1 μM unlabelled MLA. The binding reaction was terminated by dilution of samples with 3 ml of ice-cold incubation buffer followed by immediate filtration through presoaked in 0.5% polyethylenimine glass fiber filters (S&S, grade #32) using a Brandel harvester system. Filters were rinsed three times with 3 ml of ice-cold buffer, transferred to scintillation vials and 4 ml of scintillation cocktail was added.

Assay [2] addresses T2, Rat Striatal Nicotinic Acetylcholine Receptors (Rattus norvegicus, UniProt P09483+P12390).
T2 construct: from tissue; host or cells: rat striatal membranes
The experiment in a line: [3H]-NIC binding assay, rat striatal membranes. The following applies: 3 nM [3H]-NIC, at least 3 independent experiments, read-out: Ki, displacement of [3H]-NIC binding.
Experimental: Striata from two rats were dissected, pooled, and homogenized with a Tekmar polytron in 10 volumes of ice-cold modified Krebs-HEPES buffer (20 mM HEPES, 118 mM NaCl, 4.8 mM KCl, 2.5 mM CaCl2, 1.2 mM MgSO4, adjusted to pH 7.5). The homogenates were incubated at 37° C. for 5 minutes and centrifuged at 15,000 g for 20 minutes. The pellet was resuspended in 10 volumes of ice-cold MilliQ water, incubated for 5 minutes at 37° C., and centrifuged at 15,000 g for 20 mm. The second pellet was then resuspended in 10 volumes of fresh ice-cold 10% Krebs-HEPES buffer, incubated at 37° C., and centrifuged at 15,000 g for 20 minutes. The latter sequence of resuspension, incubation, and rentrifugation was repeated. The pellet was frozen under fresh 10% Krebs-HEPES buffer and stored at −40° C. until assayed. Upon assay, the pellet was resuspended in the Krebs-HEPES buffer, incubated at 37° C. for 5 minutes, and centrifuged at 15,000 g for 20 mm. The final pellet was resuspended in 3.6 ml ice-cold MilliQ water which provided for approximately 200 μg protein per 100 μl aliquot. Competition assays were performed in triplicate in a final volume of 200 μl Krebs-HEPES buffer containing 250 mmol Tris buffer (pH 7.5 at 4° C.). […] After a 90 min incubation at 4° C., reactions were terminated by dilution of the samples with 3 ml of ice-cold Krebs-HEPES buffer followed immediately by filtration through Whatman GF/B glass fiber filters (presoaked in 0.5% polyethyleneimine) using a Brandel Cell Harvester. Filters were rinsed three times with 3 ml of ice-cold Krebs-HEPES buffer, transferred to scintillation vials, and 5 ml scintillation cocktail (Research Products International Corp., Mt. Prospect, Ill.) added. Nonspecific binding determined in triplicate was defined as binding in the presence of 10 μM NIC. Binding parameters were determined using the weighted, least squares nonlinear regression analysis.

Assay [3] concerns putative α3β2* receptor subtype. The experiment in a line: Inhibition of S-(−)-NIC-evoked [3H]-DA release from rat striatal slices. It counts as cell-based. The following applies: rat striatal slices superfused 60 minutes with analog prior to NIC (10 μM). Here is the method: Rat striatal slices (500 μm thickness, 6–8 mg wet weight) were incubated for 30 minutes in Kreb's buffer (118 mM NaCl, 4.7 mMKCl, 1.2 mM MgCl2, 1.0 mM NaH2PO4, 1.3 mM CaCl2, 11.1 mM glucose, 25 mM NaHCO3, 0.11 mM L-ascorbic acid, and 0.004 mM disodium EDTA; pH 7.4, and saturated with 95% O2/5% CO2) in a metabolic shaker at 34° C. Slices were rinsed with 15 ml of fresh buffer and incubated for an additional 30 minutes in fresh buffer containing 0.1 μM [^3]H-DA (6 slices/3 ml). Subsequently, slices were rinsed with 15 ml of fresh buffer and transferred to a glass superfusion chamber. Slices were superfused (1.0 ml/min) for 60 minutes with Kreb's buffer containing nomifensine (10 μM) and pargyline (10 μM) and maintained at 34° C., pH 7.4, with continual aeration (95% O2/5% CO2). Two five minute samples (5 ml each) were collected to determine basal outflow of [^3H]-DA. […] Subsequently, S-(−)-nicotine (10 μM) was added to the buffer and an additional 12 consecutive five minute samples were collected. At the end of the experiment, each slice was solubilized and the [^3H] content of the tissue determined.
Radioactivity in the superfusate and tissue samples was determined by liquid scintillation spectroscopy. Fractional release for each sample was calculated by dividing by the total tritium present in the tissue at the time of sample collection, and was expressed as a percentage of total tissue tritium. […] The sum of the increase in collected tritium resulting from either exposure to the test-compound or exposure to nicotine in the absence and presence of the test compound equaled total [^3H]overflow. [^3H]Overflow was calculated by subtracting the [^3H]outflow during an equivalent period of prestimulation from the values in samples collected during and after drug exposure. Inasmuch as the radiolabelled compounds were not separated and identified, the tritium collected in superfusate is referred to as either [^3H]outflow or [^3 H]overflow, rather than as [^3H]-DA. [^3H]Overflow primarily represents [^3H]-DA in the presence of nomifensine and pargyline in the superfusion buffer.
In these experiments, striatal slices were superfused for 60 minutes with various concentrations of the analogs prior to NIC (10 μM) exposure. Antagonist activity was evaluated by comparing the NIC-evoked [^3H]overflow in the absence and presence of the analogs.

The mark [4] stands for this setting: rat brain membranes, 2.5 nM [3H]-MLA.

T1 sequence (Q05941 23-502): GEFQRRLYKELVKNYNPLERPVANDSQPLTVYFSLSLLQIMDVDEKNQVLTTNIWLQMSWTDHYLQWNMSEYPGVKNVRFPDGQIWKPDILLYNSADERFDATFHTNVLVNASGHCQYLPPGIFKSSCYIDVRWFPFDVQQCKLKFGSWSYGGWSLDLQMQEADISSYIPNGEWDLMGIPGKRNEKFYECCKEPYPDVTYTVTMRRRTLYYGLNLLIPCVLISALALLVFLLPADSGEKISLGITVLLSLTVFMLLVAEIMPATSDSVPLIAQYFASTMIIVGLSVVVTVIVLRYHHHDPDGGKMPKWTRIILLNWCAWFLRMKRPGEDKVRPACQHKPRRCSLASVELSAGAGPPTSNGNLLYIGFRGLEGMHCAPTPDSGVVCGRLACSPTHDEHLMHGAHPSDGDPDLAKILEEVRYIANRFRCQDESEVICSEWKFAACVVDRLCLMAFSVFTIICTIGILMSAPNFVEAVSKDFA
T2 sequence (P09483 31-630): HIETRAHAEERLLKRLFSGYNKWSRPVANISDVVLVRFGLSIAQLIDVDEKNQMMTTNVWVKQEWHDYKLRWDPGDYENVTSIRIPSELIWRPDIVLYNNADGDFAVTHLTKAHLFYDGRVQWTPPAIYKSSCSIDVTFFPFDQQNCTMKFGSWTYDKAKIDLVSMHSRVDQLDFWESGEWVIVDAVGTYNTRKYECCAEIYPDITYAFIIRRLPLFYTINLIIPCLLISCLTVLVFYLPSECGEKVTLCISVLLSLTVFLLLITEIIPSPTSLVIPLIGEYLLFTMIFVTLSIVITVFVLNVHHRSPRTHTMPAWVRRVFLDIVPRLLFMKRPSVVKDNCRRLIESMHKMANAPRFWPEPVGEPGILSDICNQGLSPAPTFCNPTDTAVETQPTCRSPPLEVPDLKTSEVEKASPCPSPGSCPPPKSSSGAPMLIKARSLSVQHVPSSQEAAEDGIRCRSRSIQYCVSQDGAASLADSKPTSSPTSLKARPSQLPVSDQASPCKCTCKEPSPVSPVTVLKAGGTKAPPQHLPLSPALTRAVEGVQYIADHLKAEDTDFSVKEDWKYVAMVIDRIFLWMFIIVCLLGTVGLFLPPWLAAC
T2 sequence (P12390 25-500): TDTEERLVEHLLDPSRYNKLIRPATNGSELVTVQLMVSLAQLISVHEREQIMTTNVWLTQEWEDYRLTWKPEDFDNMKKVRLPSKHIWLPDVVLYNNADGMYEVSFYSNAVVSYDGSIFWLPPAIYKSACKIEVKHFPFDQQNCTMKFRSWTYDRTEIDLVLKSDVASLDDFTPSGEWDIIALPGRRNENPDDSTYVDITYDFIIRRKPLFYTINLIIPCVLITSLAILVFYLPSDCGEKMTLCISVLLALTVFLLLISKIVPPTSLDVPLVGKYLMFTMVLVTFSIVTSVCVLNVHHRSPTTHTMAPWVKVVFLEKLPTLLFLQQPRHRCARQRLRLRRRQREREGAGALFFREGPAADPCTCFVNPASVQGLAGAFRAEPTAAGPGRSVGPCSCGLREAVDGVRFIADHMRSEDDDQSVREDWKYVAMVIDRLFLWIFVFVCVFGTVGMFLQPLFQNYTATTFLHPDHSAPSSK

For orientation: Ki means the dissociation constant of the complex between target and ligand, obtained from inhibition or displacement. Turning to `CN1CCC[C@H]1c1ccc[n+](CCCCCCC2CCC2)c1` [NCyNB-4, (S)-1-(6-Cyclobutyl-hexyl)-3-(1-methyl-pyrrolidin-2-yl)pyridinium bromide hydrobromide salt], the values for the Ki in assay [1] (setting [4]) and in assay [2] were 30300 nM and 7200 nM, respectively.

As to `CN1CCC[C@H]1c1ccc[n+](CCCCCCC2CCCC2)c1` [NCyNB-5, (S)-1-(6-Cyclopentyl-hexyl)-3-(1-methyl-pyrrolidin-2-yl)-pyridinium bromide hydrobromide salt], the values for the Ki in assay [1] (setting [4]) and in assay [2] were 88700 nM and 5540 nM, respectively.

In the case of `CN1CCC[C@H]1c1ccc[n+](CCCCCCC2CCCCC2)c1` [NCyNB-6, (S)-1-(6-Cyclohexyl-hexyl)-3-(1-methyl-pyrrolidin-2-yl)-pyridinium bromide hydrobromide salt], the Ki in assay [1] (setting [4]) stood at 42700 nM; in assay [2], 4560 nM.

As a reminder, the IC50 is the concentration at which inhibition is half-maximal. For the compound `CCCCCCC#CCC[n+]1cccc([C@@H]2CCCN2C)c1` [NDNB-3y, (S)-1-Dec-3-ynyl-3-(1-methyl-pyrrolidin-2-yl)-pyridinium bromide], the IC50 in assay [3] is 2590 nM. In addition, the inhibition constant Ki in assay [2] was found to be 810 nM.

`CCCCC/C=C\CCC[n+]1cccc([C@@H]2CCCN2C)c1` [NDNB-4c, (S)-cis-1-Dec-4-enyl-3-(1-methyl-pyrrolidin-2-yl)-pyridinium bromide hydrobromide salt] gave an IC50 in assay [3] of 1480 nM. For the same compound, the Ki in assay [2] was 7790 nM.

In assay [3], `CCCCC/C=C/CCC[n+]1cccc([C@@H]2CCCN2C)c1` [NDNB-4t, (S)-trans-1-Dec-4-enyl-3-(1-methyl-pyrrolidin-2-yl)-pyridinium bromide] had an IC50 of 330 nM. The Ki in assay [2] worked out at 320 nM.

`CCCCCCCCCC[n+]1cccc([C@@H]2CCCN2C)c1` [NDNI, N-n-decylnicotinium iodide, reference compound] registered an IC50 in assay [3] of more than 100000 nM. In assay [2], the Ki is 93 nM.

As to `CCOCCOCC[n+]1cccc([C@@H]2CCCN2C)c1` [NONB-3O6O, (S)-1-[2-(2-Ethoxy-ethoxy)-ethyl]-3-(1-methyl-pyrrolidin-2-yl)-pyridinium bromide], the Ki in assay [2] was found to be 1200 nM.

For `CCCC/C=C\CC[n+]1cccc([C@@H]2CCCN2C)c1` [NONB-3c, (S)-cis-3-(1-Methyl-pyrrolidin-2-yl)-1-oct-3-enyl-pyridinium bromide hydrobromide salt], in assay [3], the IC50 amounted to 2020 nM. In addition, in assay [2], the Ki stood at 86 nM.

For the compound `CCCC/C=C/CC[n+]1cccc([C@@H]2CCCN2C)c1` [NONB-3t, (S)-trans-3-(1-Methyl-pyrrolidin-2-yl)-1-oct-3-enyl-pyridinium bromide hydrobromide salt], the IC50 in assay [3] was found to be 3470 nM. Moreover, in assay [2], the Ki was 3970 nM.

Consider `CCCCC#CCC[n+]1cccc([C@@H]2CCCN2C)c1` [NONB-3y, (S)-3-(1-Methyl-pyrrolidin-2-yl)-1-oct-3-ynyl-pyridinium bromide], for which the IC50 in assay [3] was found to be 1680 nM. In addition, the Ki in assay [2] turned out to be 200 nM.

Take `CC(C)=CCCCCC[n+]1cccc([C@@H]2CCCN2C)c1` [NONB-6e7M, (S)-1-(7-Methyl-oct-6-enyl)-3-(1-methyl-pyrrolidin-2-yl)-pyridinium bromide hydrobromide]: the IC50 in assay [3] amounted to 1990 nM. Besides, the Ki in assay [2] stood at 450 nM.

Compound `CC(C)CCCCCC[n+]1cccc([C@@H]2CCCN2C)c1` [NONB-7M, (S)-1-(7-Methyl-octyl)-3-(1-methyl-pyrrolidin-2-yl)-pyridinium bromide hydrobromide salt] gave an IC50 in assay [3] of more than 100000 nM. In addition, the Ki in assay [2] was found to be 440 nM.

The compound `C=CCCCCCC[n+]1cccc([C@@H]2CCCN2C)c1` [NONB-7e, (S)-3-(1-Methyl-pyrrolidin-2-yl)-1-oct-7-enyl-pyridinium bromide] displayed an IC50 in assay [3] of 2610 nM. In assay [2], the Ki worked out at 450 nM.

Consider `CCCCCCCC[n+]1cccc([C@@H]2CCCN2C)c1` [NONI, N-n-octylnicotinium iodide, reference compound], for which half-maximal inhibition in assay [3] (IC50) required 620 nM.

Take α-Bungarotoxin [reference compound]: the Ki in assay [1] is 7.2 nM.
